How the values were obtained:
[1] = NOx detection (NO analyzer, Griess assay); conditions: incubated with GSH
Protocol: NOx detection A degassed solution containing NO-fluoxetine (0.5 mM), and cysteine (5 mM) or GSH (5 mM) in 50 mM phosphate buffer (pH 7.4, 1 mL total volume) was incubated for 30 min at 37° C. After 30 min, nitric oxide was detected using an NO analyzer, and nitrite and nitrate was detected using Griess assay.

male C57BL/6 mice = test: Step-through passive avoidance (STPA) task, scopolamine induced memory impairment; conditions: for effect on 48 h retention (scopolamine induced long term memory impairment): 4.5 umole/kg i.p. 20 minutes before training (NO-fluoxetine 2.05 mg/kg, fluoxetine 1.54 mg/kg), scopolamine 1 mg/kg
Protocol: Step-through passive avoidance (STPA) task This test was performed on male C57BL/6 mice (from Charles River's Laboratories), 8-10 weeks of age and weighing 22-27 g. The mice were kept under standardized laboratory conditions (temperature 21±1° C., humidity 50-60%) with free access to food and tap water in a room with a natural light-dark cycle.
Avoidance experiment was divided into 3 phases: habituation, training, and retention. The apparatus used consisted of a box divided into 2 compartments, an illuminated compartment adjacent to a dark compartment, the floor consisted of an electric grid controlled by a switch that can deliver an electric shock only to the dark compartment. A doorway was located at floor level in the center of the connecting wall; the door was closed once the mouse enters the dark compartment. The habituation phase was performed by individually putting the mice in the light compartment; the door was closed once the mouse enters the dark compartment (without an electric shock), left there for 15 seconds before being returned to its cage. The time (latency) to enter the dark box was recorded for each mouse; only mice scoring less than 30 seconds for three consecutive times were allowed to pass for the training phase. Training phase was performed 2 hours after the habituation phase by individually placing the mice again in the illuminated compartment but an electric shock (0.6 mA for 2 s) was delivered immediately after the mouse entered the dark compartment accompanied by the door closure. Trial was repeated for a maximum of 5 trials or until the mouse remained in the light compartment for 300 seconds in one of the trials. During the training phase, the number of trials and the time (latency) to enter the dark compartment was scored. Mice that entered the dark compartment in the fifth trial in less than 300 seconds were eliminated from the experiment. Forty-eight hours after the training trial, a retention test was conducted in which the same animals were put into the illuminated box and again the latency to enter the dark box was recorded. The retention trial ended when the mouse entered the dark box or 300 s had elapsed, whichever occurred first. Scopolamine (1 mg/kg) dissolved in physiological saline water was administered by i.p. injection 30 minutes before the training phase and drugs dissolved in 25% DMSO were administered by i.p. injection 20 minutes before the training.
The data were statistically evaluated by one way ANOVA, followed by Tukey post-hoc test.

[2] = NO-fluoxetine bioactivation in rat liver microsomes; format: in vitro ADME; conditions: 0.25 mM substrate, NADPH, 30 min, 37° C.
Protocol: In rat liver microsomes A solution containing substrate (0.25 mM), rat liver microsomes (3 nmol of P450/0.5 mL), and NADPH (2 mM) in 50 mM phosphate buffer (pH 7.4, 0.5 mL total volume) was incubated for 30 min at 37° C. The reaction was quenched by addition of acetonitrile and centrifugation for 10 min. The solution was filtered and injected to HPLC.

male Sprague Dawley rats = test: Modified forced swimming test; format: in vivo, rat; conditions: 26.5 mg/kg i.p. 23.5, 5 and 1 hour before the test
Protocol: Modified forced swimming test This test was performed using male Sprague Dawley rats weighing 200-250 g. Rats were trained to swim in the water tank for 15 minutes 24 hour before the test. NO-Fluoxetine was administered by i.p. injections 23.5, 5, and 1 hour before the test at a dose of 26.5 mg/kg, which is equimolar to 20 mg/kg fluoxetine. NO-fluoxetine was freshly prepared in an emulsion formed of 5% Tween 80. The test was performed by putting the rats in a water tank consisting of an acrylic cylinder (22 cm diameter, 30 cm water depth, 25° C. water temperature) for 5 minutes. The 5 minute test was divided into 60 blocks of 5 seconds each. The major behavior in each 5 sec block was assigned for the whole block, including climbing, swimming, and immobile. The blocks representing different behaviors were counted.
In vivo NO-fluoxetine (26.5 mg/kg equimolar to 20 mg/kg fluoxetine) given by i.p. injections 23.5, 5, and 1 hour before the test was active in the modified forced swimming test, showing an increase in the swimming behaviour and a decrease in the immobility behaviour. Sub-acute injection of NO-fluoxetine provides sufficient time for the bioactivation of NO-fluoxetine and the subsequent release of fluoxetine.
Values presented as mean±SEM, n=6 per group. The data were statistically evaluated by ANOVA, followed by Turkey post-hoc test.

[3] = NO-fluoxetine bioactivation in phosphate buffer; format: physicochemical; conditions: 50 mM phosphate buffer solutions pH 7.0, 7.4 and 8.0
Protocol: In Phosphate buffer saline A stock solution of NO-fluoxetine was prepared by dissolving 1 mg of the compound in 100 μL MeOH (21 mM). An aliquot (10 μL) of the stock solution was added to 990 μL of 50 mM phosphate buffer (pH 7.4) at 22° C., and the formation of fluoxetine was monitored by reverse phase HPLC using 4.6 mm×150 mm C18 column at a flow rate of 1.0 mL/min. The mobile phase contained 60% acetonitrile content, which was increased to 90% over 5 min. After the phase was held 90% for 5 min, the acetonitrile was reduced to 60% in 5 min. Formation of fluoxetine in buffers was positively identified by comparing retention time and the LC-MS (electrospary ionization) protonated [M+H]+ molecular ion (m/z 310) of the authentic sample. Fluoxetine formation was monitored every 15 min and percentage of fluoxetine formation was obtained with respect to time. Kinetic experiments were performed in 50 mM phosphate buffer solutions (pH 7.0, pH 7.4, and pH 8.0).
Formation of fluoxetine in buffer was positively identified by comparison to the retention time and the LC-MS (electrospary ionization) protonated [M+H]+ molecular ion (m/z 310) of an authentic fluoxetine sample.
Kinetic studies for the degradation of NO-fluoxetine were performed by monitoring the production of fluoxetine every 15 min in different pH buffer solutions (See FIG. 1).

[4] = NO-fluoxetine bioactivation in rat plasma; format: in vitro ADME; conditions: 0.25 mM substrate, 30 min, 37° C.
Protocol: In plasma A solution containing substrate (0.25 mM) and rat plasma (0.1 mL) was incubated for 30 min at 37° C. The reaction was quenched by addition of acetonitrile and centrifugation for 10 min. The solution was filtered and injected to HPLC.

Row | SMILES | nitric oxide release [1] | effect on 48 h retention (scopolamine induced long term memory impairment) (male C57BL/6 mice) | product of reaction with rat liver microsomes [2] | activity in the modified forced swimming test (male Sprague Dawley rats) | immobility behaviour (male Sprague Dawley rats) | swimming behaviour (male Sprague Dawley rats) | conversion in buffer [3] | product of reaction with plasma [4] | animals that failed to learn the STPA task during the training phase (male C57BL/6 mice; 4.5 umole/kg i.p. 20 minutes before training)
1 | CN(CCC(Oc1ccc(C(F)(F)F)cc1)c1ccccc1)C(=O)SCCO[N+](=O)[O-] (stereo not shown) [NO-fluoxetine] | released nitric oxide | reversed the scopolamine induced long term memory impairment | generated fluoxetine as the major product | active | decrease | increase | converted to fluoxetine | generated fluoxetine as the major product | 
2 | CNCCC(Oc1ccc(C(F)(F)F)cc1)c1ccccc1 (stereo not shown) [fluoxetine] |  | did not have an effect |  |  |  |  |  |  | 5 of 12 and zero

Source: patent publication US20090182011A1, “Chimeric Nitrate Esters and Use of the Same in a Treatment for Depression” (UNIVERSITY OF ILLINOIS CHICAGO, priority 2008, published 2009)
